The numbers were not newly measured in patent US20260355228A1, “TREATMENT OF FAMILIAL ADENOMATOUS POLYOPSIS USING A 13-MEMBERED MACROLIDE” (ZIKANI THERAPEUTICS, INC., priority 2022, published 2026), which cites them from elsewhere.

The subject of series [1] is APC gene nonsense mutations in colorectal cancer cell lines. Particulars: colorectal cancer cell lines [23, 24].
Series [2] deals with APC gene nonsense mutations in in vivo colon carcinoma models. Particulars: in vivo colon carcinoma models [23].
Series [3] has as its system APC (SW1417 colon carcinoma cells). Particulars: SW1417 cells [23].
Series [4] relates to mouse model of FAP. Particulars: mouse model of FAP [23, 24].
The test system of series [5] is FAP patients harboring APC nonsense mutations. Particulars: clinical study, FAP patients [25].
For series [6], the system named is human colorectal xenografts possessing APC nonsense mutations. Particulars: xenografts possessing APC nonsense mutations [23, 24].
Series [7] relates to APC L360X stop codon. Particulars: luciferase based reporter vector [40].

As to `CC[C@H]1OC(=O)C[C@@H](O)[C@H](C)[C@@H](O[C@@H]2O[C@H](C)[C@@H](O[C@H]3C[C@@](C)(O)[C@@H](O)[C@H](C)O3)[C@H](N(C)C)[C@H]2O)[C@@H](CC=O)C[C@@H](C)C(=O)/C=C/C(C)=C/[C@@H]1CO[C@@H]1O[C@H](C)[C@@H](O)[C@@H](OC)[C@H]1OC` [tylosin], the “suppression of nonsense mutations / translation termination in the APC gene” value in series [1] is reported as “can suppress translation termination generated by nonsense mutations in the APC gene”. Besides, the “suppression of translation termination generated by nonsense mutations in the APC gene” value in series [2] is “can suppress translation termination generated by nonsense mutations in the APC gene”. For the same compound, the “read-through of the nonsense mutation leading to synthesis of full-length, active APC protein” value in series [3] was “low level of full-length, active APC protein”.

As for `CC[C@H]1OC(=O)[C@H](C)[C@@H](O[C@H]2C[C@@](C)(OC)[C@@H](O)[C@H](C)O2)[C@H](C)[C@@H](O[C@@H]2O[C@H](C)C[C@H](N(C)C)[C@H]2O)[C@](C)(O)C[C@@H](C)C(=O)[C@H](C)[C@@H](O)[C@]1(C)O` [erythromycin], in series [1], the “suppression of nonsense mutations / translation termination in the APC gene” value is “suppressed nonsense mutations in the APC gene in human colon carcinoma cells”. Moreover, in series [4], the “number of intestinal polyps” value is “reduced the number of intestinal polyps”. Also, the adenoma burden result in series [5] is given as “decrease in adenoma burden”. Also, the “in vivo growth of human colorectal xenografts” value in series [6] is listed as “inhibited the in vivo growth of human colorectal xenografts”.

As to gentamicin, the “suppression of nonsense mutations / translation termination in the APC gene” value in series [1] is “suppressed nonsense mutations in the APC gene in human colon carcinoma cells”. Further, the “number of intestinal polyps” value in series [4] is “reduced the number of intestinal polyps”. In series [6], the “in vivo growth of human colorectal xenografts” value was “inhibited the in vivo growth of human colorectal xenografts”. Also, the “susceptibility of the L360X stop codon to read-through” value in series [7] was “most susceptible”.
